The results in this text go back to US20240109905A1, “4-ALKOXY-6-OXO-PYRIDAZINE DERIVATIVES MODULATING NLRP3” (JANSSEN PHARMACEUTICA NV, priority 2021, published 2024).

In general, AC50 refers to the concentration giving half of the maximal activity seen.

One experiment deals with IL-1β. The experiment in a line: PBMC assay: IL-1β release after LPS stimulation. In kind it is cell-based. To be noted: PBMC; human PBMCs, 30 min compound, 100 ng/ml LPS for 6 hrs, MSD; read-out: IL1β AC50. As to the method: The activity of a compound according to the present invention can be assessed by in vitro methods.
(§1) Peripheral venous blood was collected from healthy individuals and human peripheral blood mononuclear cells (PBMCs) were isolated from blood by Ficoll-Histopaque (Sigma-Aldrich, A0561) density gradient centrifugation. After isolation, PBMCs were stored in liquid nitrogen for later use. Upon thawing, PBMC cell viability was determined in growth medium (RPMI media supplemented with 10% fetal bovine serum, 1% Pen-Strep and 1% L-glutamine). Compounds were spotted in a 1:3 serial dilution in DMSO and diluted to the final concentration in 30 μl medium in 96 well plates (Falcon, 353072). PBMCs were added at a density of 7.5×10^4 cells per well and incubated for 30 min in a 5% CO2 incubator at 37° C. LPS stimulation was performed by addition of 100 ng/ml LPS (final concentration, Invivogen, tlrl-smlps) for 6 hrs followed by collection of cellular supernatant and the analysis of IL-1β (μM) and TNF cytokines levels (μM) via MSD technology according to manufacturers' guidelines (MSD, K151A0H).
(§2) IC50 and AC50 values (for […]) and EC50 and AC50 values (TNF) were obtained on compounds of the invention/examples, and the AC50 values are depicted in the following table: […]

Another experiment concerns TNF. The experiment in a line: PBMC assay: TNF cytokine level after LPS stimulation. In kind it is cell-based. To be noted: PBMC; human PBMCs, 30 min compound, 100 ng/ml LPS for 6 hrs, MSD. As for the experimental part:
as §1, §2

A value given as a limit tells only on which side of the number the result lay.

Turning to `CC(C)COc1cc(=O)n(CC(=O)NC23CC(C#N)(C2)C3)nc1C(C)C` [Compound 66], the concentration at half-maximal activity (AC50) is 0.22 µM in the experiment with IL-1β and > 20 µM with TNF.
In the case of `CC(C)c1nn(CC(=O)Nc2ccc3nncn3c2)c(=O)cc1OCC1CN(C(=O)OC(C)(C)C)C1` [Compound 2F], the figures for the AC50 in the experiment with IL-1β and in the experiment on TNF were > 15 µM and > 10 µM, respectively.
The corresponding values for `CCCOc1c(C(C)C)nn(CC(=O)Nc2ccc3nncn3c2)c(=O)c1Cl` [Compound 84] are 0.63 µM and 19.4 µM.
Take `COC(=O)C12CCC(NC(=O)Cn3nc(C(C)C)c(OCC(C)C)cc3=O)(CC1)C2` [Compound 38]: the AC50 in the experiment on IL-1β stood at 0.02 µM; in the experiment on TNF, 12.2 µM.
The corresponding values for `CC(C)COc1cc(=O)n(CC(=O)NC23CC(CO)(C2)C3)nc1C(C)C` [Compound 79] are 0.43 µM and > 20 µM.
The corresponding values for `CC(C)COc1cc(=O)n(CC(=O)Nc2cn3ccncc3n2)nc1C(C)C` [Compound 97] are 0.95 µM and 5.01 µM.
Take `CC(C)COc1cc(=O)n(CC(=O)Nc2ccncc2)nc1C(C)C` [Compound 47]: the AC50 is 0.08 µM with IL-1β and > 20 µM in the experiment on TNF.
For `CC(C)COc1c(C(C)C)nn(CC(=O)Nc2ccc3nncn3n2)c(=O)c1Cl` [Compound 39], the AC50 with IL-1β was determined as 0.02 µM; in the experiment on TNF, 0.6 µM.
The corresponding values for `CC(C)COc1c(C(C)C)nn(CC(=O)Nc2ccc3nncn3c2)c(=O)c1F` [Compound 61] are 0.16 µM and > 20 µM.
Consider `Cc1ccc2nc(NC(=O)Cn3nc(C(C)C)c(OCC(C)C)cc3=O)n(C)c2c1` [Compound 145], for which the concentration at half-maximal activity (AC50) in the experiment on IL-1β and in the experiment on TNF was > 20 µM each time.
Regarding `CC(C)COc1cc(=O)n(CC(=O)Nc2ccc3nncn3n2)nc1N(C)C` [Compound 58], the AC50 is 0.15 µM in the experiment with IL-1β and > 10 µM with TNF.
The corresponding values for `CC(C)COc1cc(=O)n(CC(=O)NC23CC(C(=O)O)(C2)C3)nc1C(C)C` [Compound 131, 3-(2-(4-isobutoxy-3-isopropyl-6-oxopyridazin-1(6H)-yl)acetamido)bicyclo[1.1.1]pentane-1-carboxylic acid] are 9.63 µM and > 20 µM.
Turning to `Cc1ccn2nc(NC(=O)Cn3nc(C(C)C)c(OCC(C)C)cc3=O)nc2c1` [Compound 91], the AC50 was 0.69 µM with IL-1β and > 20 µM in the experiment on TNF.
Consider `CC(C)COc1cc(=O)n(CC(=O)Nc2nc3ccc(C#N)cc3o2)nc1C(C)C` [Compound 137], for which the AC50 is 10.2 µM with IL-1β and > 20 µM in the experiment on TNF.
Regarding `CC(C)c1nn(CC(=O)Nc2ccc3nncn3c2)c(=O)cc1OC1CCNC1` (stereo not shown) [Compound 159], the AC50 in the experiment on IL-1β and in the experiment on TNF was > 20 µM in each case.
Consider `CC(C)c1nn(CC(=O)Nc2ccc3nncn3c2)c(=O)cc1OC1CCN(C(=O)OC(C)(C)C)C1` (stereo not shown) [Compound 1F, tert-butyl 3-((1-(2-([1,2,4]triazolo[4,3-a]pyridin-6-ylamino)-2-oxoethyl)-3-isopropyl-6-oxo-1,6-dihydropyridazin-4-yl)oxy)pyrrolidine-1-carboxylate], for which the AC50 is > 15 µM in the experiment with IL-1β and > 10 µM in the experiment on TNF.
For `CC(C)COc1cc(=O)n(CC(=O)Nc2nc3cc(F)ccc3n2C)nc1C(C)C` [Compound 149], the AC50 with IL-1β and in the experiment on TNF was > 20 µM throughout.
Consider `CC(C)COc1cc(=O)n(CC(=O)Nc2nc3ccc(C#N)cc3n2C)nc1C(C)C` [Compound 146], for which the AC50 with IL-1β and in the experiment with TNF was > 20 µM in each case.
In the case of `CC(C)COc1cc(=O)n(CC(=O)Nc2cc3ncccn3n2)nc1C(C)C` [Compound 103], the AC50 in the experiment on IL-1β was 1.1 µM; in the experiment on TNF it was > 20 µM.
For `CC(C)c1nn(CC(=O)Nc2ccc3nncn3c2)c(=O)cc1OCC1CC(F)(F)C1` [Compound 19F], the AC50 was 5.33 µM with IL-1β and > 10 µM in the experiment on TNF.
Regarding `CC(C)COc1cc(=O)n(CC(=O)NC23CC(C(N)C(F)(F)F)(C2)C3)nc1C(C)C` (stereo not shown) [Compound 107], the AC50 is 1.31 µM with IL-1β and > 20 µM with TNF.
As for `CC(C)c1nn(CC(=O)Nc2ccc3nncn3c2)c(=O)cc1OCC1(F)CC1` [Compound 64], the AC50 in the experiment on IL-1β was 0.2 µM; in the experiment on TNF, > 20 µM.
Regarding `CC(C)c1nn(CC(=O)Nc2ccc3nncn3n2)c(=O)cc1Oc1ccccc1` [Compound 143], the figures for the AC50 in the experiment with IL-1β and with TNF were 18 µM and > 20 µM, respectively.
The corresponding values for `CC(C)COc1cc(=O)n(CC(=O)NC23CCC(C(=O)O)(CC2)C3)nc1C(C)C` [Compound 104] are 1.12 µM and > 20 µM.
The corresponding values for `CC(Oc1cc(=O)n(CC(=O)Nc2ccc3nncn3c2)nc1C(C)C)C(=O)N(C)C` (stereo not shown) [Compound 4F] are > 15 µM and > 10 µM.
The corresponding values for `CC(C)c1nn(CC(=O)Nc2ccc3nncn3c2)c(=O)cc1OCCN(C)C` [Compound 12F] are > 15 µM and > 10 µM.
As to `CC(C)c1nn(CC(=O)Nc2ccc3nncn3c2)c(=O)cc1OCC(C)(C)C(F)(F)F` [Compound 16F], the AC50 is 1.56 µM in the experiment with IL-1β and > 10 µM in the experiment with TNF.
Consider `CC(C)c1nn(CC(=O)Nc2ccc3nncn3c2)c(=O)cc1OCC1CNC1` [Compound 160], for which the AC50 in the experiment with IL-1β and in the experiment with TNF was > 20 µM throughout.
For `CC(C)COc1cc(=O)n(CC(=O)Nc2nc3ccc(Cl)cn3n2)nc1C(C)C` [Compound 129], the figures for the AC50 in the experiment with IL-1β and with TNF were 4.7 µM and > 20 µM, respectively.
As for `Cc1noc(C23CC(NC(=O)Cn4nc(C(C)C)c(OCC(C)C)cc4=O)(C2)C3)n1` [Compound 90, 2-(4-isobutoxy-3-isopropyl-6-oxopyridazin-1(6H)-yl)-N-(3-(3-methyl-1,2,4-oxadiazol-5-yl)bicyclo[1.1.1]pentan-1-yl)acetamide], the values for the AC50 in the experiment with IL-1β and in the experiment on TNF were 0.68 µM and > 20 µM, respectively.
The corresponding values for `Cc1nccc(NC(=O)Cn2nc(C(C)C)c(OCC(C)C)cc2=O)c1F` [Compound 63] are 0.19 µM and > 20 µM.
The corresponding values for `CC(C)COc1cc(=O)n(CC(=O)NC23CCC(NC(=O)OC(C)(C)C)(CC2)CC3)nc1C(C)C` [Compound 153] are > 20 µM and > 20 µM.
For `CC(C)COc1cc(=O)n(CC(=O)NC23CCC(O)(CC2)CC3)nc1C(C)C` [Compound 88], the AC50 is 0.66 µM in the experiment with IL-1β and > 20 µM in the experiment with TNF.
Regarding `CC(C)COc1cc(=O)n(CC(=O)Nc2ccc3nncn3c2)nc1N(C)C` [Compound 70], the AC50 with IL-1β was 0.26 µM; with TNF, > 20 µM.
Turning to `CCN1CC[C@]12C[C@H](NC(=O)Cn1nc(C(C)C)c(OCC(C)C)cc1=O)C2` [Compound 81, N-((4s,6r)-1-ethyl-1-azaspiro[3.3]heptan-6-yl)-2-(4-isobutoxy-3-isopropyl-6-oxopyridazin-1(6H)-yl)acetamide], the results for the AC50 in the experiment with IL-1β and in the experiment with TNF were 0.48 µM and > 20 µM, respectively.
`CC(C)COc1cc(=O)n(CC(=O)NC23CC(CS(C)(=O)=O)(C2)C3)nc1C(C)C` [Compound 112]: the AC50 in the experiment on IL-1β is 1.55 µM; in the experiment on TNF, > 20 µM.
In the case of `CC(C)COc1cc(=O)n(CC(=O)Nc2nc3cc(Br)ccc3n2C)nc1C(C)C` [Compound 151], the AC50 in the experiment with IL-1β and with TNF was > 20 µM throughout.
For `CC(C)c1nn(CC(=O)Nc2ccc3nncn3n2)c(=O)c(Cl)c1OCC(C)(F)F` [Compound 46], the AC50 with IL-1β came out at 0.08 µM; in the experiment on TNF, 8.17 µM.
As to `CC(C)COc1cc(=O)n(CC(=O)NC23CC(F)(C2)C3)nc1C(C)C` [Compound 105], the AC50 in the experiment on IL-1β was 1.21 µM; in the experiment on TNF it was > 20 µM.
With `CC(C)c1nn(CC(=O)Nc2ccc3nncn3c2)c(=O)c(Cl)c1OCC(F)(F)F` [Compound 114], the concentration at half-maximal activity (AC50) with IL-1β was 1.85 µM; in the experiment on TNF, > 20 µM.
Turning to `CC(C)COc1cc(=O)n(CC(=O)Nc2ccncc2F)nc1C(C)C` [Compound 52], the concentration at half-maximal activity (AC50) was 0.09 µM in the experiment with IL-1β and > 20 µM with TNF.
The corresponding values for `CC(C)COc1cc(=O)n(CC(=O)NC23CC(C)(C2)C3)nc1C(C)C` [Compound 92] are 0.71 µM and > 20 µM.
As to `CC(C)COc1cc(=O)n(CC(=O)NC23CC(C(C)(C)O)(C2)C3)nc1C(C)C` [Compound 85, N-(3-(2-hydroxypropan-2-yl)bicyclo[1.1.1]pentan-1-yl)-2-(4-isobutoxy-3-isopropyl-6-oxopyridazin-1(6H)-yl)acetamide], the figures for the AC50 in the experiment on IL-1β and in the experiment on TNF were 0.65 µM and > 20 µM, respectively.
The corresponding values for `O=C(Cn1nc(C2CC2)c(OCC23CC(CO2)C3)cc1=O)Nc1ccc2nncn2n1` [Compound 32E] are 14.6 µM and > 10 µM.
The corresponding values for `CC(C)COc1cc(=O)n(CC(=O)Nc2nc3ncccc3o2)nc1C(C)C` [Compound 140] are 11.8 µM and > 20 µM.
The corresponding values for `CC(C)c1nn(CC(=O)Nc2ccc3nncn3c2)c(=O)cc1OCC(F)F` [Compound 17F] are 0.69 µM and > 10 µM.
For `CC(C)COc1cc(=O)n(CC(=O)NC23CC(N4CCOCC4)(C2)C3)nc1C(C)C` [Compound 94], the figures for the AC50 with IL-1β and with TNF were 0.78 µM and > 20 µM, respectively.
